This note sets out measurements from patent US9029546B2, “Pyrazolopyridine kinase inhibitors” (Vertex Pharmaceuticals Incorporated, priority 2008, dated 2015).

For experiment [1], the target named is PKC Delta (Homo sapiens, UniProt Q05655). Kind of experiment: PKC delta coupled-enzyme kinase assay (NADH consumption). The experiment is classed as biochemical. The conditions noted are these: 240 μM ATP, 30° C. The procedure: [The source words this procedure for another target and reports this target under the same test.] (§1) An assay buffer solution was prepared which consisted of 100 mM HEPES (pH 7.5), 10 mM MgCl2, 25 mM NaCl, 0.1 mM EDTA and 0.01% Brij. An enzyme buffer containing reagents to final assay concentrations of 0.00001% Triton X-100, 200 μg/mL Phosphatidylserine, 20 μg/mL Diacylglycerol, 360 μM NADH, 3 mM phosphoenolpyruvate, 70 μg/mL pyruvate kinase, 24 μg/mL lactate dehydrogenase, 2 mM DTT, 100 μM substrate peptide (ERMRPRKRQGSVRRRV (SEQ ID NO: 1)) and 18 nM PKC theta kinase was prepared in assay buffer. To 60 μL of this enzyme buffer, in a 384 well plate, was added 2 μL of VRT stock solution in DMSO. The mixture was allowed to equilibrate for 10 mins at 30° C. The enzyme reaction was initiated by the addition of 5 μL stock ATP solution prepared in assay buffer to a final assay concentration of 240 μM. Initial rate data was determined from the rate of change of absorbance at 340 nm (corresponding to stoichiometric consumption of NADH) using a Molecular Devices Spectramax plate reader (Sunnyvale, Calif.) over 15 mins at 30° C. For each Ki determination 12 data points covering the VRT concentration range of 0-20 μM were obtained in duplicate (DMSO stocks were prepared from an initial 10 mM VRT stock with subsequent 1:2 serial dilutions). Ki values were calculated from initial rate data by non-linear regression using the Prism software package (Prism 4.0a, Graphpad Software, San Diego, Calif.).

For experiment [2], the target named is PKC theta kinase (Homo sapiens, UniProt Q04759). Kind of experiment: PKC theta coupled-enzyme kinase assay (NADH consumption). The experiment is classed as biochemical. Conditions: 240 μM ATP, 30° C. Here is the method:
as §1

Sequence of PKC Delta (Q05655 whole entry): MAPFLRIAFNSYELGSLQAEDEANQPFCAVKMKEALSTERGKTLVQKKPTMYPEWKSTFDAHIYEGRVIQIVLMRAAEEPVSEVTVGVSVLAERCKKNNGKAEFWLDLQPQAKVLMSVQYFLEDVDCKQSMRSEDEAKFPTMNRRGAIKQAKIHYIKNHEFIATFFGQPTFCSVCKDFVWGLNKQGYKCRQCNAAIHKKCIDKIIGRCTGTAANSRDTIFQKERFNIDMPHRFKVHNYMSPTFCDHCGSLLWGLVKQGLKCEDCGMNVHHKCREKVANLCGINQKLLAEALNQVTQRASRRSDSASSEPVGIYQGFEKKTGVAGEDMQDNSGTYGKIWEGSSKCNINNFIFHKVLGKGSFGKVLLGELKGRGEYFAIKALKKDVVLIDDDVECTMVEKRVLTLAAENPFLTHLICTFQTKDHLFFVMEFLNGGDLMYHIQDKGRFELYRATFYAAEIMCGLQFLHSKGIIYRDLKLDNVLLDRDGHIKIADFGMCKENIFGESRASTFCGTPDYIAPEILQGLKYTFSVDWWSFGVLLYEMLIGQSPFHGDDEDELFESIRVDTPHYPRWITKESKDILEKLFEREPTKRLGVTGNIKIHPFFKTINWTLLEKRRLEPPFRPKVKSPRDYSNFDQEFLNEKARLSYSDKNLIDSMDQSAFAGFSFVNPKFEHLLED
Sequence of PKC theta kinase (Q04759 whole entry): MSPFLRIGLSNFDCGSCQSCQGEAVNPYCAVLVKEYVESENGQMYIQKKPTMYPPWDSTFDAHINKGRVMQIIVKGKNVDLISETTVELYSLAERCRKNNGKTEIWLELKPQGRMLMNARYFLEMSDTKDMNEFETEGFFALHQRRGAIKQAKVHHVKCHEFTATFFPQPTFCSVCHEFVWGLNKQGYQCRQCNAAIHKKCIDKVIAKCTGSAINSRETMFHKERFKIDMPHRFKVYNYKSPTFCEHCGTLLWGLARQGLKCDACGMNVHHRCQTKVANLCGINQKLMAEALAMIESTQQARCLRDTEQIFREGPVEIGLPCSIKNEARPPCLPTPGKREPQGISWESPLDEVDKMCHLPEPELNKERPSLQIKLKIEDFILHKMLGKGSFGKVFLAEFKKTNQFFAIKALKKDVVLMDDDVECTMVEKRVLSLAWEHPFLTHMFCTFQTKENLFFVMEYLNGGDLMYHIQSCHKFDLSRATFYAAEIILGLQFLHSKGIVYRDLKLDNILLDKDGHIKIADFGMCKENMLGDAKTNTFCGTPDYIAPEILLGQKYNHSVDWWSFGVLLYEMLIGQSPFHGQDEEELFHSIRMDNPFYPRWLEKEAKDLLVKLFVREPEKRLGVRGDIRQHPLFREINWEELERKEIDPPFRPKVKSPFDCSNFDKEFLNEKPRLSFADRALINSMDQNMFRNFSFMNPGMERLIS

As to `FC(F)(F)c1ccc(OC[C@@H]2CCCN2)nc1-c1n[nH]c2ncccc12` [Compound 51], the Ki in experiment [1] and in experiment [2] was more than 700 nM each time.

In the case of `FC(F)(F)c1ccc(OCCC2CCCCN2)nc1-c1n[nH]c2ncccc12` (centres unmarked) [Compound 43], the Ki in experiment [1] and in experiment [2] was more than 700 nM throughout.

Regarding `NCCCNc1cccc(-c2n[nH]c3ncccc23)n1` [Compound 2], the inhibition constant (Ki) in experiment [1] and in experiment [2] was less than 500 nM throughout.

Take `NC(=O)c1ccccc1Oc1ccc(C(F)(F)F)c(-c2n[nH]c3ncccc23)n1` [Compound 41]: the Ki in experiment [1] and in experiment [2] was more than 700 nM in each case.

As to `OC1(CNc2ccc(C(F)(F)F)c(-c3n[nH]c4ncccc34)n2)CCCCC1` [Compound 47], the Ki in experiment [1] and in experiment [2] was less than 500 nM each time.

`FC(F)(F)c1ccc(NC2CCCNC2)nc1-c1n[nH]c2ncccc12` (centres unmarked) [Compound 26]: the inhibition constant (Ki) in experiment [1] and in experiment [2] was more than 700 nM throughout.

As to `NCC1CCC(CNc2cccc(-c3n[nH]c4ncccc34)n2)CC1` (centres unmarked) [Compound 4], the Ki in experiment [1] and in experiment [2] was less than 500 nM each time.

As to `NC(COc1ccc(C(F)(F)F)c(-c2n[nH]c3ncccc23)n1)c1ccccc1` (centres unmarked) [Compound 37], the inhibition constant (Ki) in experiment [1] and in experiment [2] was less than 500 nM throughout.

With `CC(C)C[C@@H](N)COc1ccc(C(F)(F)F)c(-c2n[nH]c3ncccc23)n1` [Compound 39], the Ki in experiment [1] and in experiment [2] was more than 700 nM in each case.

Regarding `FC(F)(F)c1ccc(NCCN2CCCC2)nc1-c1n[nH]c2ncccc12` [Compound 60], the Ki in experiment [1] and in experiment [2] was more than 700 nM in each case.

In the case of `c1cc(NCC2CCCNC2)nc(-c2n[nH]c3ncccc23)c1` (centres unmarked) [Compound 12], the Ki in experiment [1] and in experiment [2] was less than 500 nM in each case.

`FC(F)(F)c1ccc(NCC2CNC2)nc1-c1n[nH]c2ncccc12` [Compound 66]: the Ki in experiment [1] and in experiment [2] was more than 700 nM throughout.

Take `c1cc(NCC2CCCN2)nc(-c2n[nH]c3ncccc23)c1` (centres unmarked) [Compound 20]: the Ki in experiment [1] and in experiment [2] was more than 700 nM throughout.

As for `N#CCCNc1ccc(C(F)(F)F)c(-c2n[nH]c3ncccc23)n1` [Compound 42], the inhibition constant (Ki) in experiment [1] and in experiment [2] was more than 700 nM each time.

As for `NCc1ccc(Nc2ccc(C(F)(F)F)c(-c3n[nH]c4ncccc34)n2)cc1` [Compound 48], the Ki in experiment [1] and in experiment [2] was more than 700 nM each time.

For the molecule `NC1CCC(Oc2ccc(C(F)(F)F)c(-c3n[nH]c4ncccc34)n2)CC1` (centres unmarked) [Compound 59], the Ki in experiment [1] and in experiment [2] was more than 700 nM each time.

As to `CC(C)(C)[C@H](N)COc1ccc(C(F)(F)F)c(-c2n[nH]c3ncccc23)n1` [Compound 72], the inhibitory constant (Ki) in experiment [1] and in experiment [2] was more than 700 nM throughout.

With `NC1CCC(CNc2ccc(C(F)(F)F)c(-c3n[nH]c4ncccc34)n2)CC1` (centres unmarked) [Compound 25, N-((4-aminocyclohexyl)methyl)-6-(1H-pyrazolo[3,4-b]pyridin-3-yl)-5-(trifluoromethyl)pyridin-2-amine], the Ki in experiment [1] and in experiment [2] was less than 500 nM throughout.

As for `Fc1ccc(NC2CNC2)nc1-c1n[nH]c2ncccc12` [Compound 64], the Ki in experiment [1] and in experiment [2] was more than 700 nM each time.

As for `FC(F)(F)c1ccc(NC2CNC2)nc1-c1n[nH]c2ncccc12` [Compound 63], the Ki in experiment [1] and in experiment [2] was more than 700 nM in each case.

In the case of `CC(O)CNc1ccc(C(F)(F)F)c(-c2n[nH]c3ncccc23)n1` (centres unmarked) [Compound 53], the Ki in experiment [1] and in experiment [2] was more than 700 nM throughout.

In the case of `CCC(CO)Nc1ccc(C(F)(F)F)c(-c2n[nH]c3ncccc23)n1` (centres unmarked) [Compound 80], the Ki in experiment [1] and in experiment [2] was more than 700 nM in each case.

As to `FC(F)(F)c1ccc(NCC2CCCCN2)nc1-c1n[nH]c2ncccc12` (centres unmarked) [Compound 32], the Ki in experiment [1] and in experiment [2] was more than 700 nM in each case.

For `NC1CCCC(Nc2cccc(-c3n[nH]c4ncccc34)n2)C1` (centres unmarked) [Compound 61], the Ki in experiment [1] and in experiment [2] was less than 50 nM each time.

For the molecule `FC(F)(F)c1ccc(NCC2CCNC2)nc1-c1n[nH]c2ncccc12` (centres unmarked) [Compound 29], the inhibition constant (Ki) in experiment [1] and in experiment [2] was more than 700 nM throughout.

Consider `FC(F)(F)c1ccc(NC2CN3CCC2CC3)nc1-c1n[nH]c2ncccc12` (centres unmarked) [Compound 71], for which the Ki in experiment [1] and in experiment [2] was more than 700 nM throughout.

Turning to `NC1CCC(CNc2cccc(-c3n[nH]c4ncccc34)n2)CC1` (centres unmarked) [Compound 13, N-((4-aminocyclohexyl)methyl)-6-(1H-pyrazolo[3,4-b]pyridin-3-yl)pyridin-2-amine], the Ki in experiment [1] and in experiment [2] was less than 500 nM each time.

For `NC1CCC(Nc2ccc(C(F)(F)F)c(-c3n[nH]c4ncccc34)n2)CC1` (centres unmarked) [Compound 35], the Ki in experiment [1] and in experiment [2] was more than 700 nM each time.

In the case of `CC(C)C[C@@H](CN)Nc1cccc(-c2n[nH]c3ncccc23)n1` [Compound 17], the Ki in experiment [1] and in experiment [2] was more than 700 nM throughout.

In the case of `FC(F)(F)c1ccc(OC[C@@H]2CCCN3CCCC[C@@H]23)nc1-c1n[nH]c2ncccc12` [Compound 74], the Ki in experiment [1] and in experiment [2] was more than 700 nM in each case.

With `CC(C)CC1(CNc2ccc(F)c(-c3n[nH]c4ncccc34)n2)CNC1` [Compound 68], the Ki in experiment [1] and in experiment [2] was less than 50 nM throughout.

Consider `CN1CCCC(COc2ccc(C(F)(F)F)c(-c3n[nH]c4ncccc34)n2)C1` (centres unmarked) [Compound 55], for which the Ki in experiment [1] and in experiment [2] was more than 700 nM each time.

On to `CC(C)(N)CNc1cccc(-c2n[nH]c3ncccc23)n1` [Compound 1, N1-(6-(1H-pyrazolo[3,4-b]pyridin-3-yl)pyridin-2-yl)-2-methylpropane-1,2-diamine], for which the Ki in experiment [1] and in experiment [2] was less than 50 nM throughout.

As for `NC1CCCCC1Nc1cccc(-c2n[nH]c3ncccc23)n1` (centres unmarked) [Compound 3], the Ki in experiment [1] and in experiment [2] was less than 500 nM each time.

Turning to `CC(C)CC1(CNc2ccc(C(F)(F)F)c(-c3n[nH]c4ncccc34)n2)CNC1` [Compound 67], the Ki in experiment [1] and in experiment [2] was less than 50 nM throughout.

For the molecule `OC[C@H](Nc1ccc(C(F)(F)F)c(-c2n[nH]c3ncccc23)n1)c1ccccc1` [Compound 79], the Ki in experiment [1] and in experiment [2] was less than 500 nM throughout.

As to `CCN1CCC(Oc2ccc(C(F)(F)F)c(-c3n[nH]c4ncccc34)n2)C1` (centres unmarked) [Compound 56], the Ki in experiment [1] and in experiment [2] was more than 700 nM throughout.

With `O[C@H]1CC[C@H](Nc2ccc(C(F)(F)F)c(-c3n[nH]c4ncccc34)n2)CC1` [Compound 81], the Ki in experiment [1] and in experiment [2] was more than 700 nM in each case.

Take `OCc1cccc(Nc2ccc(C(F)(F)F)c(-c3n[nH]c4ncccc34)n2)c1` [Compound 78]: the Ki in experiment [1] and in experiment [2] was more than 700 nM each time.

For the molecule `CN(CCC#N)c1ccc(C(F)(F)F)c(-c2n[nH]c3ncccc23)n1` [Compound 75], the Ki in experiment [1] and in experiment [2] was less than 500 nM each time.

For `OC1CCCCC1Nc1ccc(C(F)(F)F)c(-c2n[nH]c3ncccc23)n1` (centres unmarked) [Compound 84], the inhibition constant Ki in experiment [1] and in experiment [2] was more than 700 nM in each case.

Take `OCCN(CCO)c1ccc(C(F)(F)F)c(-c2n[nH]c3ncccc23)n1` [Compound 76]: the Ki in experiment [1] and in experiment [2] was more than 700 nM each time.

For the molecule `NCC1CCC(CNc2ccc(C(F)(F)F)c(-c3n[nH]c4ncccc34)n2)CC1` (centres unmarked) [Compound 24], the Ki in experiment [1] and in experiment [2] was less than 500 nM throughout.

As for `CNCCN(C)c1cccc(-c2n[nH]c3ncccc23)n1` [Compound 5], the Ki in experiment [1] and in experiment [2] was less than 2800 nM in each case.

Regarding `c1cc(NCC2CCNCC2)nc(-c2n[nH]c3ncccc23)c1` [Compound 14], the Ki in experiment [1] and in experiment [2] was less than 500 nM throughout.

Consider `Nc1cc(Cl)cc(Nc2ccc(C(F)(F)F)c(-c3n[nH]c4ncccc34)n2)c1` [Compound 70], for which the Ki in experiment [1] and in experiment [2] was less than 500 nM throughout.

Regarding `CN(CCO)c1ccc(C(F)(F)F)c(-c2n[nH]c3ncccc23)n1` [Compound 58], the inhibition constant Ki in experiment [1] and in experiment [2] was more than 700 nM throughout.

With `FC(F)(F)c1ccc(NC2CCNCC2)nc1-c1n[nH]c2ncccc12` [Compound 40], the Ki in experiment [1] and in experiment [2] was less than 2800 nM throughout.

For the molecule `NCC(CNc1cccc(-c2n[nH]c3ncccc23)n1)c1ccccc1` (centres unmarked) [Compound 9], the Ki in experiment [1] and in experiment [2] was less than 50 nM each time.

Consider `CC(C)C[C@H](N)CNc1cccc(-c2n[nH]c3ncccc23)n1` [Compound 16], for which the Ki in experiment [1] and in experiment [2] was less than 500 nM throughout.

In the case of `NC(=O)c1ccsc1Nc1ccc(C(F)(F)F)c(-c2n[nH]c3ncccc23)n1` [Compound 50], the Ki in experiment [1] and in experiment [2] was more than 700 nM throughout.

For `NCC1CCCC(CNc2ccc(C(F)(F)F)c(-c3n[nH]c4ncccc34)n2)C1` (centres unmarked) [Compound 34], the Ki in experiment [1] and in experiment [2] was more than 700 nM each time.
